We go through nine compounds from publication PMC4186771 (Journal of neurochemistry, 2013).

The target of test [1] is α1β2(T225C,C288)γ2 GABAAR (UniProt P18508+P47870+P62813, C260A/C282A/C319A/C341A/T249C). Nature of the test: GABA-induced currents, two-electrode voltage clamp in Xenopus laevis oocytes. The format is cell-based, rat α1 and γ2s, human β2. The following applies: change vs initial response, compared with Cys-less; EC50 GABA; DTT 2 mM 2 min.
The target of test [2] is α1(Q229C)β2(M286C)γ2 GABAAR (UniProt P18508+P47870+P62813, C260A/C282A/C312A/C319A/C341A/M310C/Q255C). The test is described as above. The format is cell-based, rat α1 and γ2s, human β2. The following applies: change vs initial response, compared with Cys-less; EC50 GABA; DTT 2 mM 2 min.
For test [3], the target named is α1β2γ2 Cys-less GABAAR [α1(C234A,C293A)β2(C288A)γ2(C244A,C303A)] (UniProt P18508+P47870+P62813, C260A/C282A/C312A/C319A/C341A). The test is described as above. It is filed as cell-based, rat α1 and γ2s, human β2. The following applies: for Modulation of the Cys-less receptor compared with WT: Cys-less versus wild-type α1β2γ2.
Test [4] has as its target α1β2(N265C,F289C)γ2 GABAAR (UniProt P18508+P47870+P62813, C260A/C282A/C312A/C319A/C341A/F313C/N289C). The description is as above. The format is cell-based, rat α1 and γ2s, human β2. To be noted: change vs initial response, compared with Cys-less; EC50 GABA; DTT 2 mM 2 min.
The target in test [5] is α1(L232C)β2(F289C)γ2 GABAAR (UniProt P18508+P47870+P62813, C260A/C282A/C312A/C319A/C341A/F313C/L258C). The test is described as above. It is filed as cell-based, rat α1 and γ2s, human β2. To be noted: change vs initial response, compared with Cys-less; 100 μM GABA; DTT 2 mM 2 min.
Test [6] deals with α1β2(N265C,C288)γ2 GABAAR (UniProt P18508+P47870+P62813, C260A/C282A/C319A/C341A/N289C). Described as above. The format is cell-based, rat α1 and γ2s, human β2.
Test [7] has as its target α1(L232C)β2(M286C)γ2 GABAAR (UniProt P18508+P47870+P62813, C260A/C282A/C312A/C319A/C341A/L258C/M310C). The test is described as above. It is filed as cell-based, rat α1 and γ2s, human β2.
Test [8] has as its target α1β2(N265C,M286C)γ2 GABAAR (UniProt P18508+P47870+P62813, C260A/C282A/C312A/C319A/C341A/M310C/N289C). The description is as above. It is filed as cell-based, rat α1 and γ2s, human β2. To be noted: change vs initial response, compared with Cys-less; EC50 GABA; DTT 2 mM 2 min.
Test [9] concerns the target α1β2(N265C,L285C)γ2 GABAAR (UniProt P18508+P47870+P62813, C260A/C282A/C312A/C319A/C341A/L309C/N289C). Described as above. It is filed as cell-based, rat α1 and γ2s, human β2.
Test [10] concerns the target α1β2(T225C,L285C)γ2 GABAAR (UniProt P18508+P47870+P62813, C260A/C282A/C312A/C319A/C341A/L309C/T249C). The test is described as above. It is filed as cell-based, rat α1 and γ2s, human β2.
For test [11], the target named is α1(Q229C)β2(N265C)γ2 GABAAR (UniProt P18508+P47870+P62813, C260A/C282A/C312A/C319A/C341A/N289C/Q255C). The description is as above. The format is cell-based, rat α1 and γ2s, human β2. The following applies: change vs initial response, compared with Cys-less; EC50 GABA; DTT 2 mM 2 min.
Test [12] deals with α1β2(T225C,N265C)γ2 GABAAR (UniProt P18508+P47870+P62813, C260A/C282A/C312A/C319A/C341A/N289C/T249C). The description is as above. It is filed as cell-based, rat α1 and γ2s, human β2. To be noted: change vs initial response, compared with Cys-less; 1 mM GABA; DTT 2 mM 2 min.
The target in test [13] is β2C288-containing GABAARs (UniProt P18508+P47870+P62813, C260A/C282A/C319A/C341A). The description is as above. The following applies: EC10 GABA; BMTS 0.5 mM co-applied with maximal GABA. The format is cell-based, rat α1 and γ2s, human β2.
In a further test the target is α1(L232C)β2γ2 GABAAR (UniProt P18508+P47870+P62813, C260A/C282A/C312A/C319A/C341A/L258C). Described as above. It is filed as cell-based, rat α1 and γ2s, human β2.
The target of a further test is α1β2(M286C)γ2 GABAAR (UniProt P18508+P47870+P62813, C260A/C282A/C312A/C319A/C341A/M310C). The description is as above. It is filed as cell-based, rat α1 and γ2s, human β2.
Another test addresses α1β2(T225C)γ2 GABAAR (UniProt P18508+P47870+P62813, C260A/C282A/C312A/C319A/C341A/T249C). The description is as above. The following applies: EC10 GABA; BMTS 0.5 mM co-applied with maximal GABA. The format is cell-based, rat α1 and γ2s, human β2.
In test [14] the target is β2(L285C)-containing GABAARs (UniProt P18508+P47870+P62813, C260A/C282A/C312A/C319A/C341A/L309C). The test is described as above. It is filed as cell-based, rat α1 and γ2s, human β2.
A further test has as its target α1β2(F289C)γ2 GABAAR (UniProt P18508+P47870+P62813, C260A/C282A/C312A/C319A/C341A/F313C). The test is described as above. The format is cell-based, rat α1 and γ2s, human β2.
For test [15], the target named is β2(N265C)-containing GABAARs (UniProt P18508+P47870+P62813, C260A/C282A/C312A/C319A/C341A/N289C). The description is as above. The format is cell-based, rat α1 and γ2s, human β2.
A further test deals with α1(Q229C)β2γ2 GABAAR (UniProt P18508+P47870+P62813, C260A/C282A/C312A/C319A/C341A/Q255C). Described as above. The format is cell-based, rat α1 and γ2s, human β2. The following applies: Butanol (33 mM) modulation of EC10 GABA; after versus before BMTS labeling.
In another test the test system is bovine GABAAR. The following applies: ref Li et al. 2010; cited from earlier work.
The subject of the next test is wild-type GLIC. The following applies: intra-subunit binding; ref Weng et al. 2010; cited from earlier work.
For test [16], the system named is mutated alcohol-sensitive GLIC. To be noted: inter-subunit binding; ref Howard et al. 2011; cited from earlier work.
The test system of test [17] is recombinant α1β3γ2 GABAARs. The following applies: in the presence of GABA; ref Chiara et al. 2013; cited from earlier work.
[18] abbreviates: change vs initial response, compared with Cys-less, EC50 GABA, DTT 2 mM 2 min.
Setting [19] is: EC10 GABA, BMTS 0.5 mM co-applied with maximal GABA.
Where [20] appears, read: Butanol (33 mM) modulation of EC10 GABA, after versus before BMTS labeling.
[21] abbreviates: single cysteine mutant, no treatment.
[22] abbreviates: Butanol modulation of EC10 GABA, 11 and 33 mM, after Cu^++:Phen versus after DTT.
The mark [23] stands for this setting: Isoflurane 0.3 mM on EC10 GABA, after versus before BMTS labeling.
[24] abbreviates: Isoflurane 0.3 and 0.9 mM on EC10 GABA, after Cu^++:Phen versus after DTT.

α1β2(F289C)γ2 GABAAR, sequence (P62813 28-455 C260A/C319A): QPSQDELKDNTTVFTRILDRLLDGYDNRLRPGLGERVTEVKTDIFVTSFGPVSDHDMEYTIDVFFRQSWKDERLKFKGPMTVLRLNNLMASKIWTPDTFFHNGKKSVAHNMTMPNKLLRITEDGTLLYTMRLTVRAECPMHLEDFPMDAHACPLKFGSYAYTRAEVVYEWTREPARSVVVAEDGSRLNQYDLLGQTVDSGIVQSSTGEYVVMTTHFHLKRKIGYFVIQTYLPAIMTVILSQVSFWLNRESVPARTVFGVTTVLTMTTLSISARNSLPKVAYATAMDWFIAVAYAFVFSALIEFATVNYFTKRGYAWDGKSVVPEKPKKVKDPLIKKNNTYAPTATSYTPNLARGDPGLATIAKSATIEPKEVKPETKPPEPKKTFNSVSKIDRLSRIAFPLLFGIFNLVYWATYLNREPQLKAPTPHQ
α1β2(F289C)γ2 GABAAR, sequence (P47870 25-474 isoform P47870-1 C312A/F313C limits assumed): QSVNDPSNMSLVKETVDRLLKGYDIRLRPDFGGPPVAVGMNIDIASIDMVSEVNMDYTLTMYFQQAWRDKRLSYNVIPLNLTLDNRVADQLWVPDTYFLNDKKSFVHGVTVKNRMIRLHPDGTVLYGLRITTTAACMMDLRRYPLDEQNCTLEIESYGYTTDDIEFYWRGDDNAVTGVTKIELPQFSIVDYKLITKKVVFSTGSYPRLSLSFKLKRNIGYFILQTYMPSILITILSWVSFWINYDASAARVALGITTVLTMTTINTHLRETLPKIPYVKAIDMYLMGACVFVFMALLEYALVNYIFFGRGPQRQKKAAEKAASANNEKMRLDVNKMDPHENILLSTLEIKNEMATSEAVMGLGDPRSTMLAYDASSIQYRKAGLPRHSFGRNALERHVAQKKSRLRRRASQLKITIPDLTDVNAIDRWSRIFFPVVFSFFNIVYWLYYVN
α1β2(F289C)γ2 GABAAR, sequence (P18508 39-466 C282A/C341A): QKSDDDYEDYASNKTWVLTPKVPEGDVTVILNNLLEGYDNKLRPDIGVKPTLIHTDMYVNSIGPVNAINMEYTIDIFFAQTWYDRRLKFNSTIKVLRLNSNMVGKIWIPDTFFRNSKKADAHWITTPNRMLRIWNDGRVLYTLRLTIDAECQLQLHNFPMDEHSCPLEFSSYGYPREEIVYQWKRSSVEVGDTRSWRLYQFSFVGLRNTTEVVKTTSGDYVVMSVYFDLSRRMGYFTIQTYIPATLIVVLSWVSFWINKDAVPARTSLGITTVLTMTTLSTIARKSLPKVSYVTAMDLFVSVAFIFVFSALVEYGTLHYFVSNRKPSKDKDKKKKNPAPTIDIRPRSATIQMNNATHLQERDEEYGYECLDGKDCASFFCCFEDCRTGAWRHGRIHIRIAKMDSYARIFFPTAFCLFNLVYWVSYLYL
β2(N265C)-containing GABAARs, sequence (P62813 28-455 C260A/C319A): as the sequence (P62813 28-455 C260A/C319A) above
β2(N265C)-containing GABAARs, sequence (P47870 25-474 isoform P47870-1 N289C/C312A limits assumed): as the sequence (P47870 25-474 isoform P47870-1 C312A/F313C limits assumed) above, with N265C, C289F counted along it
β2(N265C)-containing GABAARs, sequence (P18508 39-466 C282A/C341A): as the sequence (P18508 39-466 C282A/C341A) above
α1β2(T225C,L285C)γ2 GABAAR, sequence (P62813 28-455 C260A/C319A): as the sequence (P62813 28-455 C260A/C319A) above
α1β2(T225C,L285C)γ2 GABAAR, sequence (P47870 25-474 isoform P47870-1 T249C/L309C/C312A limits assumed): as the sequence (P47870 25-474 isoform P47870-1 C312A/F313C limits assumed) above, with T225C, L285C, C289F counted along it
α1β2(T225C,L285C)γ2 GABAAR, sequence (P18508 39-466 C282A/C341A): as the sequence (P18508 39-466 C282A/C341A) above

For `O[C@@H](CS)[C@@H](O)CS` (racemic) [DTT, dithiothreitol], the “GABA responses After DTT” value in [1] is on record as “Increase”; in [2] it was “Increase”; in [3] (change vs initial response, EC50 GABA, DTT 2 mM 2 min), “No change”; in test [4], “Increase”; in [5], “Increase”; in test [6] (setting [18]), “No change”. Besides, the “GABA responses After DTT” value was “No change” in [7] (setting [18]); “Decrease” in [8]; “No change” in test [9] (setting [18]); “No change” in [10] (setting [18]); “Decrease” in test [11]; “Increase” in [12].
On to `CCCCSS(C)(=O)=O` [BMTS, butyl methanethiosulfonate], for which the “GABA responses after BMTS + GABA” value in test [13] is “No change”; in test [3] (setting [19]), “No change”; at α1(L232C)β2γ2 GABAAR (setting [19]), “Increase”; at α1β2(M286C)γ2 GABAAR (setting [19]), “Increase”; at α1β2(T225C)γ2 GABAAR, “No net change”.
As to `CCCCO` [Butanol, butanol], the “Butanol effect after BMTS labeling” value is “No change” in [14] (setting [20]); “No change/ Small decrease” in test [3] (setting [20]); “Decrease” in [15] (setting [20]); “No change” at α1(L232C)β2γ2 GABAAR (setting [20]); “Decrease” on α1β2(M286C)γ2 GABAAR (setting [20]); “No change” on α1(Q229C)β2γ2 GABAAR. Besides, the “Butanol potentiation of GABA responses compared with the Cys-less receptor” value (in test [14] (setting [21]); on α1β2(F289C)γ2 GABAAR (setting [21]); in test [15] (setting [21]); on α1(L232C)β2γ2 GABAAR (setting [21]); on α1β2(M286C)γ2 GABAAR (setting [21])) was “decreased” in each case. In addition, the “Butanol effect After crosslink” value in test [3] (setting [22]) is “No change”; in [6] (setting [22]) it was “Decrease”; in test [7] (setting [22]) it was “No change”; in [9] (setting [22]) it was “Decrease”; in [10] (setting [22]), “Decrease”. Besides, the “Change in the butanol potentiation after oxidation” value in test [10] (Butanol on EC10 GABA, after Cu^++:Phen versus after DTT) is on record as −51%.
Consider `FC(F)OC(Cl)C(F)(F)F` (stereo not drawn) [Isoflurane], for which the “Isoflurane effect after BMTS labeling” value at α1β2(F289C)γ2 GABAAR (EC10 GABA, after versus before BMTS treatment, data not shown) was “switched from very small, and even inhibitory effects, to potentiation”. Besides, at α1β2(F289C)γ2 GABAAR (setting [21]), the “Isoflurane potentiation of GABA responses compared with the Cys-less receptor” value is “decreased”. Further, the “Isoflurane potentiation after BMTS labeling” value (in test [15] (setting [23]); at α1β2(M286C)γ2 GABAAR (setting [23])) was “decreased” throughout. The “Isoflurane effect after oxidation (crosslink)” value in [7] (setting [24]) is on record as “no changes”. Moreover, the “Isoflurane potentiation after oxidation (crosslink)” value in test [10] (setting [24]) is “decrease”. The “Block of etomidate analog photolabeling” value in the test on bovine GABAAR was “isoflurane could”.
On to `FC(F)OC(F)C(F)(F)F` (stereo not drawn) [desflurane], for which the “Effect on channel function” value in the test on wild-type GLIC is listed as “inhibits”.
Take `CCO` [ethanol]: the “Modulation of the Cys-less receptor compared with WT” value in test [3] is “essentially the same as WT”. For the same compound, the “Effect on channel function” value in test [16] is listed as “potentiates”.
For `CCCCCCCCO` [octanol], the Block of photolabeling result in test [17] is on record as “blocked”. Also, in the test with bovine GABAAR, the “Block of etomidate analog photolabeling” value is “neither octanol nor ethanol could block”.
As for `CC(C)c1cccc(C(C)C)c1O` [propofol], the “Effect on channel function” value in the test with wild-type GLIC is given as “inhibits”.
Take `[Zn]` [zinc]: the “Modulation of the Cys-less receptor compared with WT” value in test [3] is given as “essentially the same as WT”.
